# Results as given in PMC1774582, “Choroid plexus epithelial monolayers – a cell culture model from porcine brain” (Cerebrospinal Fluid Research, 2006).
# Key:
# [1] = tested on: choroid plexus epithelial cells
# Method: (§1) To assess CSF secretion by cultured CPEC, cells were cultured on permeable, polyester six-well Transwell® filter plates coated with 5 μg/ml laminin for 13 to 15 DIC. […] Following a 1 h preincubation with CSFB, 1.0 ml 1.0 μM 67 kDa fluorescent-dextran (FITC-dextran) in CSFB was added to both apical and basolateral chambers and secreted CSF volume (in μl/cm^2) was calculated as a function of FITC-dextran concentration change.
# (§2) The permeability coefficient P of test compounds was calculated according to equation (2):
# (§3) P=dc/dt×Vacceptor/A×c0 (2) MathType@MTEF@5@5@+=feaafiart1ev1aaatCvAUfKttLearuWrP9MDH5MBPbIqV92AaeXatLxBI9gBaebbnrfifHhDYfgasaacH8akY=wiFfYdH8Gipec8Eeeu0xXdbba9frFj0=OqFfea0dXdd9vqai=hGuQ8kuc9pgc9s8qqaq=dirpe0xb9q8qiLsFr0=vr0=vr0dc8meaabaqaciaacaGaaeqabaqabeGadaaakeaacqWGqbaucqGH9aqpdaWcaaqaaiabdsgaKjabdogaJbqaaiabdsgaKjabdsha0baacqGHxdaTdaWcaaqaaiabdAfawnaaBaaaleaacqWGHbqycqWGJbWycqWGJbWycqWGLbqzcqWGWbaCcqWG0baDcqWGVbWBcqWGYbGCaeqaaaGcbaGaemyqaeKaey41aqRaem4yam2aaSbaaSqaaiabicdaWaqabaaaaOGaaCzcaiaaxMaadaqadaqaaiabikdaYaGaayjkaiaawMcaaaaa@4C1D@
# (§4) with dc/dt representing the change of the acceptor concentration over time, Vacceptor the acceptor volume, A the membrane surface area and c0 the initial donor concentration. Concentrations were assessed by analysis in a fluorescent plate reader (Ascent Fluoroscan) for fluorescent-labelled compounds.
# Mrp1 [2] = tested on: Mrp1; set-up: method as in PMID 10675353; conditions: animals lacking Mrp1 ref 49; cited from earlier work
# Mrp1 [3] = target: Mrp1 (Sus scrofa, UniProt K9IVJ9); conditions: 2 μM FL-MTX, CPEC; direction taken from paragraph and Figure 10B
# [4] = tested on: choroid plexus epithelial cells; assay: Permeability across choroid plexus epithelial cell (CPEC) monolayers on Transwell filters; conditions: apical versus basolateral direction
# Method: as §1, §2, §3, §4
# [5] = tested on: intact choroid plexus tissue; conditions: intact choroid plexus tissue from guinea pig ref 47; cited from earlier work
# Mrp1 (Sus scrofa, UniProt K9IVJ9), sequence (K9IVJ9 1-1532): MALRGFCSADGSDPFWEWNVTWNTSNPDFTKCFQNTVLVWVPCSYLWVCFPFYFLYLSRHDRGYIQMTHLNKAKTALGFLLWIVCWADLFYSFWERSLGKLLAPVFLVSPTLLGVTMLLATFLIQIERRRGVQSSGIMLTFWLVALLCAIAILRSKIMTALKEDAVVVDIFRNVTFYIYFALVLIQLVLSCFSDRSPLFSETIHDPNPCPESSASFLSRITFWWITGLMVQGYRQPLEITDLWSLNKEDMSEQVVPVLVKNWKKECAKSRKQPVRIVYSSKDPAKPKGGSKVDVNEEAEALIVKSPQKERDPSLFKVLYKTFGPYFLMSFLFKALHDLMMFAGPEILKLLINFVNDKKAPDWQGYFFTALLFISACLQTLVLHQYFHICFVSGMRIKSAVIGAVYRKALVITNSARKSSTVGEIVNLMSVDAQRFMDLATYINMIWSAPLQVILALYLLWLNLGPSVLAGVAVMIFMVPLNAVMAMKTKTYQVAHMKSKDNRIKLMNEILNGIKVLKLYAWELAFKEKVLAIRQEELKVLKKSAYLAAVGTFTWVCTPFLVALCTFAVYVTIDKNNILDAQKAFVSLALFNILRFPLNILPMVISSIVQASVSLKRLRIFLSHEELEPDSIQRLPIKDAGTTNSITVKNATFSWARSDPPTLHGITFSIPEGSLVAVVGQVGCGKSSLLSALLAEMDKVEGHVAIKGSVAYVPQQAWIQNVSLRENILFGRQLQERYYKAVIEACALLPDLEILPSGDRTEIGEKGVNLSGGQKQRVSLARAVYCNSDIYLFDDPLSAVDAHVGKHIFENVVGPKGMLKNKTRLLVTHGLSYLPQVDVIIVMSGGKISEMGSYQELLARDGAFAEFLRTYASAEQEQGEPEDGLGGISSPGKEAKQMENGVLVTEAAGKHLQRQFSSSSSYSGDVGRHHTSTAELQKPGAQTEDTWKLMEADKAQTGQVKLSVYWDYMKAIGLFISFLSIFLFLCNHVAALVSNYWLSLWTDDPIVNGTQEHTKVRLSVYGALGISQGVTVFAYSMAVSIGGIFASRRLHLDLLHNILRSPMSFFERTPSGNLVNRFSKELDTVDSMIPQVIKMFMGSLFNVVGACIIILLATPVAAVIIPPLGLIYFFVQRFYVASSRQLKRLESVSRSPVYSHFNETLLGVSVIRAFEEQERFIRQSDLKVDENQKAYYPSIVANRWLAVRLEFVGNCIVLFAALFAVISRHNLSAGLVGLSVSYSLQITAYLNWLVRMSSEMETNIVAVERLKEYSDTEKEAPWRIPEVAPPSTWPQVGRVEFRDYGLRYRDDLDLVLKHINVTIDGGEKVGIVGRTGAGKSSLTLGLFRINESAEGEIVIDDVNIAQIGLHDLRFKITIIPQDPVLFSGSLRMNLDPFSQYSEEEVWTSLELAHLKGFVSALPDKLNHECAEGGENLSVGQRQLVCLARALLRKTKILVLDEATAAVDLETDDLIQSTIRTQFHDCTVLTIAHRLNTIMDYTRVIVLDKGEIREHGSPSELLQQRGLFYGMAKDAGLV
structure (smiles),measurement,setting,value
O=C(O)c1ccc2c(c1)C(=O)OC21c2ccc(O)cc2Oc2cc(O)ccc21 [5-carboxyfluorescein],Papp (apparent permeability coefficient),[1],45 ×10⁻⁶ cm/s
same,Papp with opened tight junctions versus intact monolayer,[1],nearly doubling
COc1cc([C@@H]2c3cc4c(cc3[C@@H](O[C@@H]3O[C@@H]5CO[C@@H](C)O[C@H]5[C@H](O)[C@H]3O)[C@H]3COC(=O)[C@H]23)OCO4)cc(OC)c1O [etoposide],accumulation in CSF,Mrp1 [2],increased accumulation
Nc1ccc(C(=O)NCC(=O)O)cc1 [p-aminohippuric acid],effect on FL-MTX transport from the basolateral to the apical side,Mrp1 [3],did not significantly affect
CCCN(CCC)S(=O)(=O)c1ccc(C(=O)O)cc1 [probenecid],effect on FL-MTX transport from the basolateral to the apical side,Mrp1 [3],did not significantly affect
COC(=O)c1ccccc1-c1c2ccc(=N)cc-2oc2cc(N)ccc12 [rhodamine 123],preferred / directed transport across CP epithelial cells,[4],no directed transport
CC[C@]1(O)C[C@@H]2CN(CCc3c([nH]c4ccccc34)[C@@](C(=O)OC)(c3cc4c(cc3OC)N(C)[C@H]3[C@@](O)(C(=O)OC)[C@H](OC(C)=O)[C@]5(CC)C=CCN6CC[C@]43[C@@H]65)C2)C1 [vinblastine],influence on uptake of the Pgp substrate ritonavir,[5],not influenced
